# In PubChem BioAssay (NCI):
#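 96-well plates; 48 h exposure; 5 concentrations. Endpoints by linear interpolation between flanking doses. Not reached: highest tested concentration assigned. Definition used: TGI = concentration required for complete inhibition of growth.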
# Experiments:
# Experiment in all cases: NCI tumour cell line growth inhibition, 48 h
# UACC-257 melanoma = tested on: UACC-257 melanoma
# SF-539 CNS = tested on: SF-539 CNS
# KM12 colon = tested on: KM12 colon
# HS 578T breast = tested on: HS 578T breast
# BT-549 breast = tested on: BT-549 breast
# NCI-H23 lung = tested on: NCI-H23 lung
# SK-OV-3 ovarian = tested on: SK-OV-3 ovarian
# NCI-H460 lung = tested on: NCI-H460 lung
# OVCAR-4 ovarian = tested on: OVCAR-4 ovarian
# RXF 393 renal = tested on: RXF 393 renal
# MCF7 breast = tested on: MCF7 breast
# SF-295 CNS = tested on: SF-295 CNS
# SK-MEL-28 melanoma = tested on: SK-MEL-28 melanoma
# A498 renal = tested on: A498 renal
# CAKI-1 renal = tested on: CAKI-1 renal
# MDA-MB-435 = tested on: MDA-MB-435
# COLO 205 colon = tested on: COLO 205 colon
# 786-0 renal = tested on: 786-0 renal
# HCC-2998 colon = tested on: HCC-2998 colon
# SR leukemia = tested on: SR leukemia
SMILES,TGI (UACC-257 melanoma) [µM],TGI (SF-539 CNS) [µM],TGI (KM12 colon) [µM],TGI (HS 578T breast) [µM],TGI (BT-549 breast) [µM],TGI (NCI-H23 lung) [µM],TGI (SK-OV-3 ovarian) [µM],TGI (NCI-H460 lung) [µM],TGI (OVCAR-4 ovarian) [µM],TGI (RXF 393 renal) [µM],TGI (MCF7 breast) [µM],TGI (SF-295 CNS) [µM],TGI (SK-MEL-28 melanoma) [µM],TGI (A498 renal) [µM],TGI (CAKI-1 renal) [µM],TGI (MDA-MB-435) [µM],TGI (COLO 205 colon) [µM],TGI (786-0 renal) [µM],TGI (HCC-2998 colon) [µM],TGI (SR leukemia) [µM]
CC(C)Oc1c(C2(c3ccccc3O)SCCCS2)c(=O)c1=O,> 100,> 100,> 100,> 100,> 100,> 100,> 100,> 100,> 100,> 100,> 100,> 100,> 100,> 100,> 100,> 100,> 100,> 100,–,–
CCOC(=O)CCC(NC(=O)c1ccc(Nc2cnc3cc(C(F)(F)F)ccc3n2)cc1)C(=O)OCC (centres undefined),> 100,> 100,> 100,47.7,49,> 100,–,> 100,> 100,9.64,> 31.6,26,> 100,–,47,> 100,> 100,> 66.8,> 100,> 100
O=S(Nc1ccccc1)c1ccc(-c2ccccc2)cc1 (centres undefined),> 100,> 100,> 100,> 100,> 100,> 100,–,> 100,> 100,–,> 100,> 100,> 100,–,–,> 100,> 100,> 100,> 100,> 100
CC1=CSC(O)(c2ccc(Cl)cc2)c2noc(=O)n21 (centres undefined),60.3,> 100,> 100,–,> 100,> 100,> 100,> 100,> 100,> 100,> 100,> 100,> 100,> 100,> 100,> 100,> 100,> 100,> 100,> 100
Cc1ccc(C(=O)OC(C)C)cc1N=NN(C)C,81.9,> 100,> 100,> 100,> 100,> 100,> 100,> 100,> 100,–,> 100,> 100,> 100,–,> 100,> 100,> 100,> 100,> 100,> 100
CN(C)CCn1c(=O)oc2cc(C(=O)CN3CCOCC3)ccc21,> 100,> 100,> 100,> 100,> 100,> 100,> 100,> 100,–,> 100,> 100,> 100,> 100,–,> 100,> 100,> 100,> 100,–,> 100
CCCC(=O)OCC1(CO)C/C(=C/CC(C(C)C)C(C)C)C(=O)O1 (centres undefined),> 100,–,> 100,> 100,> 100,> 100,> 100,> 100,> 100,> 100,> 100,> 100,> 100,> 100,> 100,> 100,> 100,> 100,> 100,–
COc1ccc(/C=N/NC(=O)c2ccccc2Nc2ccccc2C(=O)N/N=C/c2ccc(OC)cc2)cc1,> 100,–,> 100,–,> 100,> 100,> 100,> 100,> 100,> 100,> 100,> 100,> 100,> 100,> 100,> 100,> 100,> 100,> 100,> 100
OC1CSCCCSCCSCCCSC1,> 100,> 100,–,> 100,> 100,> 100,> 100,> 100,> 100,> 100,> 100,> 100,> 100,> 100,> 100,> 100,> 100,> 100,> 100,–
CC(O)CCNC(=O)Nc1c(C(F)(F)F)cc(-c2ccccc2)[nH]c1=O (centres undefined),> 100,–,> 100,> 100,> 100,> 100,> 100,> 100,> 100,> 100,> 100,> 100,> 100,> 100,> 100,> 100,> 100,> 100,> 100,–
Cc1ccc(S(=O)(=O)NC(=O)NC(C(=O)O)C(C)O)cc1 (centres undefined),> 100,> 100,> 100,> 100,> 100,> 100,> 100,> 100,> 100,> 100,> 100,> 100,> 100,–,–,–,> 100,> 100,–,> 100
CC1(C)C(=O)N(O)C(C)(C)N1N=O,> 10,–,> 10,–,> 10,> 10,–,> 10,> 10,> 10,> 10,> 10,–,–,> 10,> 10,> 10,> 10,> 10,> 10
